The test deals with T1, human plasma protein factor Xa (Homo sapiens, UniProt P00742).
T1 construct: The human plasma protein factor Xa was purchased; purchased Haematologic Technologies (Essex Junction, Vt.); host or cells: human plasma
Put plainly: Factor Xa IC50 determination (cleavage of paranitroanilide substrate S-2765). In kind it is biochemical. The settings on record: factor Xa 1 nM, S-2765 100 μM, Tris buffered saline pH 7.4, read at 405 nm. In outline: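 Human plasma factor Xa (1 nM) preincubated 5 min at room temperature with inhibitor (0.01 nM–10 μM) in Tris-buffered saline pH 7.4 with 5 mM CaCl2, 0.1% BSA, 5% DMSO. S-2765 added at 100 μM final; pNA release followed at 405 nm for 2 min. IC50 from four-parameter fit of initial velocities.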

A value given as a limit tells only on which side of the number the result lay.

T1 sequence (P00742 235-488 limits assumed): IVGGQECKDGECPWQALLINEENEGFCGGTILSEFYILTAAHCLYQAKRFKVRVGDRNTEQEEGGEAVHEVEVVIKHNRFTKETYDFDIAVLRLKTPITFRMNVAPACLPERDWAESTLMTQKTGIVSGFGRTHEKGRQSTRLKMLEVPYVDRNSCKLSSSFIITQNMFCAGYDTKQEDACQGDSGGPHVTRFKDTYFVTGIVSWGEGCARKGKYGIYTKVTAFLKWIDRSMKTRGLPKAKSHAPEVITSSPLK
T1 sequence (P00742 41-179 partner limits assumed): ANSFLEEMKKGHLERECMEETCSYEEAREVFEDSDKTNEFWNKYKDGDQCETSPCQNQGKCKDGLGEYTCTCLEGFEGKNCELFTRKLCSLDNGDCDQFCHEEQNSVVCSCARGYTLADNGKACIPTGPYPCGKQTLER

In the case of `NC(=O)C1CCN(C(=O)c2cc(-n3ccccc3=O)ccc2-n2cc(CNC(=O)c3ccc(Cl)s3)nn2)CC1` [Compound 116, 1-(2-(4-((5-Chlorothiophene-2-carboxamido)methyl)-1H-1,2,3-triazol-1-yl)-5-(2-oxopyridin-1(2H)-yl)benzoyl)piperidine-4-carboxamide], the IC50 fell in the range of 100 to 500 nM.
Molecule `O=C(NCc1cn(-c2ccc(-n3ccccc3=O)cc2C(=O)NCc2nnn[nH]2)nn1)c1ccc(Cl)s1` [Compound 117, N-((1-(2-(((1H-Tetrazol-5-yl)methyl)carbamoyl)-4-(2-oxopyridin-1(2H)-yl)phenyl)-1H-1,2,3-triazol-4-yl)methyl)-5-chlorothiophene-2-carboxamide] returned a half-inhibitory concentration (IC50) of no more than 100 nM.
For `O=C(NCc1cn(-c2ccc(-n3ccccc3=O)cc2C(=O)Nc2ccncc2)nn1)c1ccc(Cl)s1` [Compound 118, 5-Chloro-N-((1-(4-(2-oxopyridin-1(2H)-yl)-2-(pyridin-4-ylcarbamoyl)phenyl)-1H-1,2,3-triazol-4-yl)methyl)thiophene-2-carboxamide], the concentration for half-maximal inhibition (IC50) lay in the range of 100 to 500 nM.
`O=C(NCc1cn(-c2ccc(-n3ccccc3=O)cc2CO)nn1)c1ccc(Cl)s1` [Compound 119, 5-Chloro-N-((1-(2-(hydroxymethyl)-4-(2-oxopyridin-1(2H)-yl)phenyl)-1H-1,2,3-triazol-4-yl)methyl)thiophene-2-carboxamide] yielded an IC50 of no more than 100 nM.
In turn, `NCc1cc(-n2ccccc2=O)ccc1-n1cc(CNC(=O)c2ccc(Cl)s2)nn1` [Compound 120, N-((1-(2-(Aminomethyl)-4-(2-oxopyridin-1(2H)-yl)phenyl)-1H-1,2,3-triazol-4-yl)methyl)-5-chlorothiophene-2-carboxamide] showed an IC50 of no more than 100 nM.
The molecule `CN(C)Cc1cc(-n2ccccc2=O)ccc1-n1cc(CNC(=O)c2ccc(Cl)s2)nn1` [Compound 121, 5-Chloro-N-((1-(2-((dimethylamino)methyl)-4-(2-oxopyridin-1(2H)-yl)phenyl)-1H-1,2,3-triazol-4-yl)methyl)thiophene-2-carboxamide] showed a 50% inhibitory concentration (IC50) of no more than 100 nM.
As for `O=C(NCc1cn(-c2ccc(-n3ccccc3=O)cc2-c2ccncc2)nn1)c1ccc(Cl)s1` [Compound 125, 5-Chloro-N-((1-(4-(2-oxopyridin-1(2H)-yl)-2-(pyridin-4-yl)phenyl)-1H-1,2,3-triazol-4-yl)methyl)thiophene-2-carboxamide], the half-inhibitory concentration (IC50) is no more than 100 nM.
Take `O=C(NCc1cn(-c2ccc(-n3ccccc3=O)cc2-c2cccnc2)nn1)c1ccc(Cl)s1` [Compound 126, 5-Chloro-N-((1-(4-(2-oxopyridin-1(2H)-yl)-2-(pyridin-3-yl)phenyl)-1H-1,2,3-triazol-4-yl)methyl)thiophene-2-carboxamide]: the IC50 was no more than 100 nM.
`O=C(NCc1cn(-c2ccc(-n3ccccc3=O)cc2-c2ccnc(Cl)c2)nn1)c1ccc(Cl)s1` [Compound 133, 5-Chloro-N-((1-(2-(2-chloropyridin-4-yl)-4-(2-oxopyridin-1(2H)-yl)phenyl)-1H-1,2,3-triazol-4-yl)methyl)thiophene-2-carboxamide] displayed an IC50 of no more than 100 nM.
Turning to `O=C(NCc1cn(-c2ccc(-n3ccccc3=O)cc2-c2ccnc(F)c2)nn1)c1ccc(Cl)s1` [Compound 134, 5-Chloro-N-((1-(2-(2-fluoropyridin-4-yl)-4-(2-oxopyridin-1(2H)-yl)phenyl)-1H-1,2,3-triazol-4-yl)methyl)thiophene-2-carboxamide], the concentration for half-maximal inhibition (IC50) is no more than 100 nM.
Turning to `O=C(NCc1cn(-c2ccc(-n3ccccc3=O)cc2-c2ccc(Cl)nc2)nn1)c1ccc(Cl)s1` [Compound 135, 5-Chloro-N-((1-(2-(6-chloropyridin-3-yl)-4-(2-oxopyridin-1(2H)-yl)phenyl)-1H-1,2,3-triazo1-4-yl)methyl)thiophene-2-carboxamide], the IC50 is no more than 100 nM.
The value for `O=C(NCc1cn(-c2ccc(-n3ccccc3=O)cc2-c2ccnc(O)c2)nn1)c1ccc(Cl)s1` [Compound 137, 5-Chloro-N-((1-(2-(2-hydroxypyridin-4-yl)-4-(2-oxopyridin-1(2H)-yl)phenyl)-1H-1,2,3-triazol-4-yl)methyl)thiophene-2-carboxamide] was no more than 100 nM.

These data come from patent publication US20110160196A1, “FACTOR XA INHIBITORS” (Millennium Pharmaceuticals, Inc., priority 2007, published 2011).
